Data taken from patent publication US20030220524A1, “Sulfur containing compounds” (priority 2000, published 2003).
Where two headings read alike, the source gives them in different places.

Key:
KK leukemic cell line = assay: Fixed propidium iodide staining, flow cytometry; assay type: cell-based, human; conditions: 48 h
Method: (§1) Adherent cell lines were plated at 35×10^4 cells/60 cm^2 dish the day before exposure to compound. Suspension cells were seeded at 25×10^4 cells/mL in a 6 well dish (Falcon) the day of exposure to compound. Mononucleated, T-cell depleted normal bone marrow cells were seeded at 50×10^4 cells/mL in a 6 well dish the day of exposure to compound. Cells were exposed to solvent control or approximate MTT50 and MTT30 concentrations of the compound. After 48 h of exposure to the compound, cells were harvested, fixed in 80% ethanol for 1 h on ice and labeled with 50 μg/mL propidium iodide (Sigma). Approximately 10^6 cells were analyzed using a XL-MCL flow cytometer (Coulter Corporation, Miami, Fla.) and a FACScalibar cytometer (Becton Dickinson, San Jose, Calif.). Profiles shown are a representative.
as §1, with “cm2” for “cm^2”, “concentrations.” for “concentrations of the compound.”, “representative. Cell viability counts and Pi staining were performed as previously described (Dimitroulakos, J, Nohynek, D, Backway, K L, Hedley, D W, Yeger, H, Freedman, M H, Minden, M D and Penn, L Z: Increased sensitivity of acute myeloid leukemias to lovastatin-induced apoptosis: A potential therapeutic approach. Blood 93: 1308-18, 1999).” for “representative.”

AML-3 leukemic cell line = assay: TUNEL, flow cytometry; assay type: cell-based, human; set-up: unit: %; conditions: 48 h
Method: (§2) Adherent cell lines were plated at 35×10^4 cells/60 cm^2 dish the day before exposure to compound. Suspension cells were seeded at 25×10^4 cells/mL in a 6 well dish (Falcon) the day of exposure to compound. Mononucleated, T-cell depleted normal bone marrow cells were seeded at 50×10^4 cells/mL in a 6 well dish the day of exposure to compound. Cells were exposed to solvent control or approximate MTT50 and MTT30 concentrations of the compound. After 48 h of exposure to the compound, cells were harvested and fixed with a final concentration of 4% formaldehyde. Fixed cells were stored at −20° C. in 70% ethanol for no more than 5 days. Approximately 10^5 cells were pelleted and labeled with 0.02 mM Biotin-dUTP and 12.5 U TdT enzyme in a 1× reaction buffer (200 mM potassium cacodylate, 25 mM Tris-HCl, 25 μg/mL bovine serum albumin, pH 6.6), 2.5 mM CoCl2 and 0.01 mM dTTP (Roche Molecular Biochemicals, Laval, QC, Canada) for 45 min at 37° C. Samples were washed and incubated in 200 μL of 1:1000 fluorescein isothiocyanate (FITC)-conjugated avidin (Sigma) in 4×SSC, 5% skim milk powder and 0.05% Tween-20 (Sigma). Following 1 h of mixing at room temperature, the samples were washed and resuspended in 500 μL of D-PBS containing 2.5 μg/mL DNase-free RNase (Boehringer Mannheim) and 10 μg/mL PI. Following a 30 min incubation at room temperature, cells were analyzed using a XL-MCL flow cytometer (Coulter Corporation, Miami, Fla.) and a FACScalibar cytometer (Becton Dickinson, San Jose, Calif.). Profiles shown are representative of one experiment.
as §2, with “? s” for “Cells”, “appr ? nate” for “approximate”, “of” for “of the”, “Pl.” for “PI.”

Aspergillus flavus = assay: Antifungal paper disk test, diameter of clear zone; assay type: cell-based; conditions: for zone of inhibition at 100 µg/disc: read-out: Diameter (mm) of clear Zone A. flavus
Method: (§3) Sulfur compounds were tested for antifungal activity against pure cultures of Aspergillus niger and Aspergillus flavus supplied by Ward's Natural Science Ltd (St. Catharines, Ontario, Canada). They were maintained on Sabouraud Dextrose Agar.
(§4) For the test, 6 agar plugs (5 mm diameter) were cut from a 5-8 day old colony and homogenized in distilled, sterilized water (2 ml). A portion of this suspension (0.5 ml) was transferred aseptically to a Petri plate with Sabouraud Dextrose Agar (15 ml) and spread evenly over the entire surface. […] Each test compound was applied to the disks as a solution (50 mg compound/10 ml acetone). Control disks were treated with neat acetone (20 μl). Test plates with fungal homogenates and disks were incubated at 18-20° C. for 2 days. For each test four replicate plates were used. The diameter of the clear zone surrounding the disk was taken as the indicator of antifungal activity.

Aspergillus niger = assay: Antifungal paper disk test, diameter of clear zone; assay type: cell-based; conditions: for zone of inhibition at 100 µg/disc: read-out: Diameter (mm) of clear Zone A. niger
Method: as §3, §4

[1] = tested on: WI38 non-transformed diploid fibroblasts; assay: Fixed propidium iodide staining, flow cytometry; assay type: cell-based, human; conditions: 48 h
Method: as §1
as §1, with “cm2” for “cm^2”, “concentrations.” for “concentrations of the compound.”, “representative. Cell viability counts and Pi staining were performed as previously described (Dimitroulakos, J, Nohynek, D, Backway, K L, Hedley, D W, Yeger, H, Freedman, M H, Minden, M D and Penn, L Z: Increased sensitivity of acute myeloid leukemias to lovastatin-induced apoptosis: A potential therapeutic approach. Blood 93: 1308-18, 1999).” for “representative.”

[2] = Aspergillus flavus, 100 μg/disk, acetone
[3] = Aspergillus niger, 100 μg/disk, acetone
[4] = dose 50 uM (229 ug/mL) as printed

Q: What does the source list for `CSCSCS(C)(=O)=O` [B]?
A: % pre-G1 (Fixed PI) (KK leukemic cell line; dose 107 uM (20 ug/mL)): 1.1%; TUNEL FITC +ve (AML-3 leukemic cell line; dose 107 uM (20 ug/mL)): 3.85

Q: How did the “% pre-G1 (Fixed PI)” value (KK leukemic cell line; dose 212 uM (20 ug/mL)) turn out when `CS(C)(=O)=O` [Compound A, dimethyl sulfone] was run?
A: 1.1%

Q: And the “Diameter (mm) of clear Zone A. flavus” value (Aspergillus flavus; 100 μg/disk, acetone)?
A: 0 mm

Q: And the “Diameter (mm) of clear Zone A. niger” value (Aspergillus niger; 100 μg/disk, acetone)?
A: 0 mm

Q: For `CSSCS(=O)(=O)c1ccc(C)cc1` [Compound C, α-p-toluenesulfonyl dimethyl disulphide], which “% pre-G1 (Fixed PI)” value (KK leukemic cell line; dose 40.3 uM (20 ug/mL)) is on record?
A: 20.6%

Q: What about the “Diameter (mm) of clear Zone A. flavus” value (Aspergillus flavus; 25 μg/disk, acetone) of the same molecule?
A: 8.0 mm

Q: And the “Diameter (mm) of clear Zone A. niger” value (Aspergillus niger; 25 μg/disk, acetone)?
A: 10.9 mm

Q: And the “TUNEL FITC +ve” value (AML-3 leukemic cell line; dose 20.2 uM (10 ug/mL))?
A: 22.4

Q: What does the source list for `CSCSSC` [Compound N, 2,3,5-trithiahexane]?
A: % G2 increase (Fixed PI) (KK leukemic cell line; dose 50 uM): +4%; % pre-G1 (Fixed PI) (KK leukemic cell line; dose 50 uM): 13%; % G2 increase (Fixed PI) (KK leukemic cell line; dose 150 uM): +5%; % pre-G1 (Fixed PI) (KK leukemic cell line; dose 150 uM): 10%; % G2 increase (Fixed PI) ([1]; dose 50 uM): +7%; % pre-G1 (Fixed PI) ([1]; dose 50 uM): 2%; % G2 increase (Fixed PI) ([1]; dose 150 uM): +25%; % pre-G1 (Fixed PI) ([1]; dose 150 uM): 4%; zone of inhibition at 100 µg/disc (Aspergillus flavus; Aspergillus flavus): 0 mm; zone of inhibition at 100 µg/disc (Aspergillus niger; Aspergillus niger): 0 mm

Q: Which “% pre-G1 (Fixed PI)” value ([1]; dose 50 uM) does the source give for `CSSCC(=O)c1ccccc1` [Compound P, phenacyl methyl disulphide] here?
A: 2%

Q: What about the “% pre-G1 (Fixed PI)” value ([1]; dose 150 uM) of the same molecule?
A: 52%

Q: With `CCC(=O)OCSSc1ccccc1` [Compound Q, 1-phenyl-1,2-dithiapropyl propionate] as the molecule, how does the “% pre-G1 (Fixed PI)” value (KK leukemic cell line; dose 20 uM) read?
A: 15%

Q: What about the “% G2 increase (Fixed PI)” value (KK leukemic cell line; dose 40 uM) of the same molecule?
A: −4%

Q: What about the “% pre-G1 (Fixed PI)” value (KK leukemic cell line; dose 40 uM) of the same molecule?
A: 43%

Q: And the “% G2 increase (Fixed PI)” value ([1]; dose 20 uM)?
A: +3%

Q: And the “% pre-G1 (Fixed PI)” value ([1]; dose 20 uM)?
A: 1%

Q: And the “% G2 increase (Fixed PI)” value ([1]; dose 40 uM)?
A: +10%

Q: What about the “% pre-G1 (Fixed PI)” value ([1]; dose 40 uM) of the same molecule?
A: 1%

Q: What about the zone of inhibition at 2.5 µg/disc (Aspergillus flavus; Aspergillus flavus, 2.5 μg/disk, acetone) of the same molecule?
A: 2.3 mm

Q: And the zone of inhibition at 2.5 µg/disc (Aspergillus niger; Aspergillus niger, 2.5 μg/disk, acetone)?
A: 3.5 mm

Q: `c1ccc(SSc2ccccc2)cc1` [D, diphenyl disulphide] was tested. Which “% pre-G1 (Fixed PI)” value (KK leukemic cell line; dose 91.6 uM (20 ug/mL)) did it give?
A: 33.9%

Q: What about the zone of inhibition at 100 µg/disc (Aspergillus flavus; [2]) of the same molecule?
A: 0 mm

Q: What about the zone of inhibition at 100 µg/disc (Aspergillus niger; [3]) of the same molecule?
A: 0 mm

Q: How did the “% pre-G1 (Fixed PI)” value (KK leukemic cell line; dose 85.3 uM (20 ug/mL)) turn out when `CS(=O)(=O)CSSc1ccccc1` [E, 5-phenyl-2,4,5-trithiapentane 2,2-dioxide] was run?
A: 34.7%

Q: And the zone of inhibition at 25 µg/disc (Aspergillus flavus; Aspergillus flavus, 25 μg/disk, acetone)?
A: 1.8 mm

Q: And the zone of inhibition at 25 µg/disc (Aspergillus niger; Aspergillus niger, 25 μg/disk, acetone)?
A: 0.8 mm

Q: Which “% pre-G1 (Fixed PI)” value (KK leukemic cell line; dose 91.6 uM (20 ug/mL)) does the source give for `CSSCCS(C)(=O)=O` [F, 2,3,6-trithiaheptane 6,6,-dioxide] here?
A: 3.8%

Q: And the “% G2/M (Fixed PI)” value [1, 4]?
A: 17.8%

Q: And the “% pre-G1 (Fixed PI)” value [1, 4]?
A: 0.1%

Q: And the “Diameter (mm) of clear Zone A. flavus” value (Aspergillus flavus; 100 μg/disk, acetone)?
A: 0 mm

Q: What about the “Diameter (mm) of clear Zone A. niger” value (Aspergillus niger; 100 μg/disk, acetone) of the same molecule?
A: 0 mm

Q: And the “TUNEL FITC +ve” value (AML-3 leukemic cell line; dose 45.8 uM (10 ug/mL))?
A: 31.9

Q: `CS(=O)(=O)CSCS(C)(=O)=O` [G, 2,4,6-trithiaheptane 2,2,6,6-tetraoxide] was tested. Which “% pre-G1 (Fixed PI)” value (KK leukemic cell line; dose 91.6 uM (20 ug/mL)) did it give?
A: 3.8%

Q: And the zone of inhibition at 100 µg/disc (Aspergillus flavus; [2])?
A: 0 mm

Q: And the zone of inhibition at 100 µg/disc (Aspergillus niger; [3])?
A: 0 mm

Q: And the “TUNEL FITC +ve” value (AML-3 leukemic cell line; dose 45.8 uM (10 ug/mL))?
A: 3.0

Q: How did the “% pre-G1 (Fixed PI)” value (KK leukemic cell line; dose 133.4 uM (20 ug/mL)) turn out when `COC(=O)CSSC` [H, methyl 3,4-dithiopentanoate] was run?
A: 5.9%

Q: What about the “% pre-G1 (Fixed PI)” value ([1]; dose 985 uM (150 ug/mL)) of the same molecule?
A: 0.7%

Q: What about the “Diameter (mm) of clear Zone A. flavus” value (Aspergillus flavus; 100 μg/disk, acetone) of the same molecule?
A: 0 mm

Q: What about the “Diameter (mm) of clear Zone A. niger” value (Aspergillus niger; 100 μg/disk, acetone) of the same molecule?
A: 0 mm

Q: And the “TUNEL FITC +ve” value (AML-3 leukemic cell line; dose 65.7 uM (10 ug/mL))?
A: 10.2

Q: `CSSCOC(C)=O` [I, 2,3-dithiabutyl acetate] was tested. Which “% pre-G1 (Fixed PI)” value (KK leukemic cell line; dose 65.7 uM (10 ug/mL)) did it give?
A: 48.4%

Q: What about the zone of inhibition at 100 µg/disc (Aspergillus flavus; [2]) of the same molecule?
A: 2.3 mm

Q: What about the zone of inhibition at 100 µg/disc (Aspergillus niger; [3]) of the same molecule?
A: 2.3 mm

Q: What about the “TUNEL FITC +ve” value (AML-3 leukemic cell line; dose 32.8 uM (5 ug/mL)) of the same molecule?
A: 57.3

Q: For `CSSc1ccc([N+](=O)[O-])cc1` [M, methyl p-nitrophenyl disulphide], which “% pre-G1 (Fixed PI)” value ([1]; dose 40 uM) is on record?
A: 16%

Q: And the “% pre-G1 (Fixed PI)” value ([1]; dose 120 uM as printed)?
A: 119%

Q: What about the zone of inhibition at 10 µg/disc (Aspergillus flavus; Aspergillus flavus, 10 μg/disk, acetone) of the same molecule?
A: 4 mm

Q: And the “Diameter (mm) of clear Zone A. niger” value (Aspergillus niger; 10 μg/disk, acetone, listed as p-CH3SS(C6H4)NO2)?
A: 3.8 mm

Q: What about the zone of inhibition at 10 µg/disc (Aspergillus niger; Aspergillus niger, 10 μg/disk, acetone) of the same molecule?
A: 3.9 mm
